In patent US20180318291A1, “USE OF AMINOTHIAZOLE MYD88 SPECIFIC INHIBITOR TJM2010-5” (WUHAN INNAMUNE PHARMACEUTICAL INC. LTD., priority 2015, published 2018):

Experiments:
[1] = tested on: inflammatory factors (IL-1β, TNF-α, IL-6) in graft; assay: real time quantitative PCR of inflammatory factors in graft; format: in vivo, mice
Source text: 1. Extract the total RNA from the receptor receiving antigen (homogenic, allogenic) stimulation by the TRIzol method;
2. Reversely transcribe them to cDNA by the two-step method of RT-PCR;
3. Make the standard curve to compare the measured relative level of IL-1β, TNF-α, IL-6.

DC = assay: CD80/CD86 expression on bone marrow DC by flow cytometry; format: cell-based, mice
Method: 1. Derive the bone marrow cell from the BALB/c mice administrated with TJM2010-5, destruct the red blood cell, and place them into the RPMI1640 medium with the concentration of 2×10^6/ML (adding GM-CSF of 10 ng/ml, IL-4 of 10 ng/ml);
2. Remove the suspension cell 48 hours later, and collect the suspension and anchorage-dependent cell on day 6.
3. Place DCs into […] of TJM2010-5 for cultivating for 1 hour, add necrotic myocardium supernate, LPS (200 ng/ml), Poly I:C (20 mg/ml), CpG (10 mg/ml) to cultivate the cells for 12 hours.
4. Add the flow antibody FITC to label anti-CD80, CD86, and conduct detection with machine.
(§1) DC: Place the cells into a 48-pore plate, the number of cells is 1×10^6/pore, and 1 ml of medium system is added to each pore. Firstly, add TJM2010-5 of different concentration gradients to pre-incubate the cells for 2 h, then, add the LPS to get the final concentration of 1 ug/ml, and then incubate them in CO2 incubator at 37° C. for one night (12 h).
(§2) Add the flow antibody FITC to label anti-CD80, CD86, and conduct detection with machine.

C57bl/6 mice kidney IRI = assay: renal ischemia reperfusion injury in mice; format: in vivo
Method: 1. Groups: General C57bl/6 group (Control), CMC vehicle group, MYD88KO group, TJ-M2010 group, the 8 mice in each group will be provided with treatment of ischemia reperfusion: narcotize, block the left kidney with vascular clamp, and place them in incubator of 31 C° for 80 min; after that, open it and remove the right kidney, and then close the abdomen. Collect blood 24 hours later to conduct BUN, Cr detection.
2. For TJM2010-5 group and CMC group, provide intraperitoneal injection of TJ-M2010-5 dissolved in 0.5% CMC of 150 mg/kg/d on the day before and the day of operation; for CMC group: inject 0.5% CMC solution of 200 μl.
3. Observe the survival time of mice, and make the survival curve. Send the blood specimen to the pathology department for detection of BUN, Cr.

[2] = tested on: heart of Balb/c mice transplanted to C57bl/6 mice; assay: mice heart transplantation model (graft survival); format: in vivo; conditions: Balb/c heart to C57bl/6; 150 mg/kg intraperitoneal day 0 to day 6; survive up to 100 days
Source text: 1) Application of TJM2010-5 in Mice Heart Transplantation Model
Four groups are set in the experiment, which are: control group (conducting heart transplantation without any treatment), CMC group (vehicle control group), TJM2010-5 treatment group (effect detection group) and ciclosporinA (CsA) control group. The specific treatment methods as follows:
Control group: Take and transplant the heart of Balb/c mice to the abdominal cavity of C57bl/6 mice, and no special treatment is provided after operation;
CMC control group: Take and transplant the heart of Balb/c mice to the abdominal cavity of C57bl/6 mice, and provide intraperitoneal injection of sodium carboxymethyl cellulose (0.5% CMC) solution without TJM2010-5 on day 0 to day 6 after the heart transplantation, and the dose is 200 μl.
TJM2010-5 treatment group: Take and transplant the heart of Balb/c mice to the abdominal cavity of C57bl/6 mice, and provide intraperitoneal injection of TJM2010-5 dissolved in CMC on day 0 to day 6 after the heart transplantation, and the dose is 150 mg/kg.
CsA treatment group: Take and transplant the heart of Balb/c mice to the abdominal cavity of C57bl/6 mice, and provide intraperitoneal injection of CsA on day 0 to day 6 after the heart transplantation, and the dose is 15 mg/kg/day. […]

RAW264.7 cell = assay: CD80 expression on RAW264.7 (macrophage) cells by flow cytometry; format: cell-based
Method: TJM2010-5 can inhibit the up-regulation of RAW264.7 cell on costimulatory molecules CD80 caused by TLR stimulant (LPS, CpG), which means that TJM2010-5 can effectively block the TLR signal pathway, thus to inhibit the cells' immune reaction.
as §1, with “Raw264.7: Place” for “DC: Place”, “is 9×10^5/pore,” for “is 1×10^6/pore,”, “the CPG” for “the LPS”, “of 40” for “of 1”, “h). Add the flow antibody FITC to label anti-CD80, CD86, and conduct detection with machine;” for “h).”
as §2

T cells = assay: activation of T cells (FIG. 3a); format: cell-based
mice with endoxemia = assay: endoxemia lethal experiment (LPS); format: in vivo; conditions: 250 mg/kg intragastric once a day for three days, then LPS ip; FIG. 15(a)
Method: Part one: Observe the effect of MyD88 inhibitor on mortality of mice with endoxemia. The mice will be divided into 2 groups randomly:
Vehicle control group and experiment group (TJM2010-5 treatment group), and 20 mice in each group. Where, the TJM2010-5 treatment group is provided with the intragastric administration of TJM2010-5 (0.5% CMC solvent, 25 mg/ml) at the dose of 250 mg/kg (200 μL per mouse); the vehicle control group is provided with the intragastric administration of 0.5% CMC, 200 μL per mouse. Apply the intragastric administration once a day, and for three days successively. And on day 3, after the […], provide the intraperitoneal injection of LPS 1 hour later, then, observe the survival condition every twelve hours, and for three days.

Structure (SMILES): O=C(CCN1CCN(Cc2ccccc2)CC1)Nc1nc(-c2ccccc2)cs1 [TJM2010-5, 3-(4-benzylpiperazin-1-yl)-N-(4-phenylthiazol-2-yl) propanamide]
- level of inflammatory factors (IL-1β, TNF-α, IL-6) in heart graft vs control group ([1]; FIG. 9): significantly lower than that of control group
- level of IL-1β in graft vs CMC allogeneic transplantation group ([1]; FIG. 9a): significantly lower than those in CMC allogeneic transplantation group
- level of IL-6 in graft vs CMC allogeneic transplantation group ([1]; FIG. 9c): significantly lower than those in CMC allogeneic transplantation group
- up-regulation of costimulatory molecules CD80/CD86 incurred by LPS, CpG (DC): inhibit up-regulation
- expression of CD80 on DC surface (DC; DC, 2 h pre-incubation, LPS 1 ug/ml, 12 h, FIG. 3c): concentration-dependent inhibition
- CD80 expression on DC stimulated by LPS, CPG, cardiac tissue homogenate (DC; FIG. 3b): down-regulate
- survival rate after mice kidney IRI (C57bl/6 mice kidney IRI; 150 mg/kg/d intraperitoneal day before and day of operation, FIG. 6): significantly improve
- protection of kidney functions (BUN, Cr) (C57bl/6 mice kidney IRI; 150 mg/kg/d intraperitoneal, blood 24 hours later, FIG. 7): better protection effect
- heart allograft surviving up to 100 days [2]: 80%
- up-regulation of costimulatory molecule CD80 caused by TLR stimulant (LPS, CpG) (RAW264.7 cell; RAW264.7 cell): inhibit
- expression of CD80 on macrophage surface (RAW264.7 cell; Raw264.7, 2 h pre-incubation, CPG 40 ug/ml, 12 h, FIG. 3d): concentration-dependent inhibition
- activation of T cells (T cells): dose-dependently reduce
- death incurred by endotoxin (mice with endoxemia): effectively delay
- lethality of endotoxin (mice with endoxemia): reduce
